Data taken from US20050232902A1, “Injectable bioartificial tissue matrix” (priority 2004, published 2005).

Experiments:
injured myocardium = assay: Transplantation of hES-derived cardiomyocytes pretreated with ascorbic acid into LAD-ligated heart, graft/infarct ratio; assay type: in vivo, Mice
Text: The ascorbic acid-treated cells can become large conglomerates of cells in the injected tissue and thereby can restore major portions of a damaged heart muscle when compared with tissue injected with untreated cells. The proportion of host tissue target organ restored by the grafted cultured cells can be evaluated by a measure termed the “graft/infarct ratio”. The graft/infarct ratio is the ratio of the portion of the ‘dead tissue’ area of the target organ that is restored and/or replaced by transplanted cells of bioartificial tissue. The ratio is determined by dividing a measured area of the restored and/or replaced area by the total measured area of ‘dead tissue’. In addition, a measure or growth and/or of viability can be determined by other methods known in the art. Such methods include, staining of tissue slices with trypan blue to determine extent of dye exclusion, determining nucleic acid uptake of tritiated thymidine into proliferating cells, and staining of tissue slices with toluidin blue to determine extent of dye uptake.
Human ES (hES) cell lines, H1 and H7 (Mummery et al., (2002) supra; Hescheler, B. K. et al. (1997) Cardiovasc. Res. 36:149-162) were initially maintained on feeders in ES medium containing 80% knockout Dulbecco's modified Eagle's medium (KO-DMEM) (Invitrogen, Carlsbad Calif.), 1 mM L-glutamine, 0.1 mM β-mercaptoethanol, 1% nonessential amino acids stock (Invitrogen), 20% Serum Replacement (Invitrogen, Carlsbad Calif.) and 4 ng/ml hbFGF (Invitrogen). The cells were later maintained using feeder-free conditions, herein described. Briefly, feeder-free cultures were passaged by incubation in 200 units/ml collagenase IV for 5-10 minutes at 37° C., dissociated and then seeded onto MATRIGEL-coated plates and maintained in conditioned medium (CM) prepared from primary mouse embryonic fibroblast cultures.
Confluent H7 hES cell cultures were incubated with 0.5 mM EDTA in phosphate-buffered saline (PBS) at 37° C. for 8 min, dissociated, resuspended in CM and replated onto MATRIGEL-coated plates at ˜1×10^6 cells/cm^2. […]

chondrocytes = conditions: cited from earlier work
[1] = tested on: transplant cell viability and colonization; assay: Adjuvants compared with ascorbic acid in transplantable cell cultures (Example VI); assay type: in vivo; conditions: treatment of cells prior to transplantation into a target organ
Text: In separate experiments, treatment with other adjuvants or treatments were compared with treatment with ascorbic acid. [formula]

O=C1O[C@H]([C@@H](O)CO)C(O)=C1O [ascorbic acid]
Increase of graft/infarct ratio compared with untreated cells (injured myocardium; 24 hours (treated) vs six hours (untreated, R=0.09:1.0) after transplantation): 4.6 fold
Effects on colonization and viability of pretreated cells at subsequent time points (injured myocardium; 7 days, 14 days, and 28 days following transplantation): sustained
Area of the tissue populated by transplanted cells (injured myocardium; cells pretreated 24 hrs with 1 mM ascorbic acid, 24 hours following transplantation, total damaged area 536,594 μm^2, FIG. 5): 215,525 μm^2
Viable cells in the gelled culture (chondrocytes; 2×10^5 cells starting number, 50 μg/ml ascorbic acid, three weeks in vitro): approximately 12×10^5 cells
Increase in cell viability (chondrocytes; chondrocytes incubated three weeks in vitro vs absence of ascorbic acid): approximately ten-fold
Viable cells after three weeks incubation (chondrocytes; starting number 2×10^6 cells): 2.6×10^6 cells
Increase in transplant cell viability and colonization [1]: at least 47 fold
